Experimental data taken from paper PMC12648443, “Modifications of NU-9, a potent protein aggregation inhibitor. Properties and activity in a cellular model of amyotrophic lateral sclerosis” (Bioorganic chemistry, 2025).

Experiments:
[1] = system: MG132-induced mutant SOD1 intracellular aggregation in PC12-SOD1^G85R YFP cells; assay: Protection against MG132-induced mut-SOD1 intracellular aggregation (fluorescence microscopy); format: cell-based
Procedure: The PC12 Tet-Off-SOD1^G85R YFP cells were cultured in DMEM media supplemented with 10 % horse serum, 5 % Tet-approved FBS, 1 % Penstrep, 1× L-glutamine, 200 μg/mL hygromycin, 100 μg/mL G418, with 1 μg/mL Doxycycline and were incubated at 37 °C in humidified air with […] until 90–95 % confluency. To induce the expression of SOD1^G85R YFP, the Doxycycline was removed at least 4 days before the experiment. To remove the Doxycycline, the media was removed, and the cells were washed 3 times with 1xPBS. The cells were then cultured in standard culture media without Doxycycline. To set up the assay, the cells were then seeded into 96-well cell culture plates (Greiner Bio-One Catalog #655090) at a concentration of 50,000 cells/well with a final volume of 100 μL/well and incubated in the CO2 incubator at 37 °C for 24 h. The media were removed from the cells and replaced with 100 μL of media containing 0.1 % DMSO or compounds, and incubated in the CO2 incubator at 37 °C for 6 h. The media were then replaced with fresh 100 μL of media containing the diluted compounds with 0.7 μM (−)-MG-132, and the plates were incubated for 72 h under culture conditions. After 72 h, the cells were stained with Hoescht 33,342 (55 μg/mL, 10 μL/well) and imaged (lex = 358, 513 nm) using a Molecular Devices ImageXpress Micro Confocal High-Content Imaging System equipped with a 40× objective. […] Image binning was set to 2. DAPI fluorescence was captured using an exposure time of 300 ms, and FITC fluorescence was captured using an exposure time of 400 ms. A 13-plane z-series was acquired for each field of view with a step size of 3 μm. For each condition, 2 sets of 9 images were generated in a 3 × 3 grid to separately image the SOD1^G85R YFP proteins and the nuclei stained with Hoescht 33,342. Image analysis was performed with MetaXpress software (Molecular Devices) using the Transfluor module. Parameters for puncta detection (aggregates) were set with a minimum pit width of 2 μm and a maximum pit width of 5 μm. Signal intensity thresholds were defined as 700 grayscale units above the local background. The analysis provided the average area of each cell that is covered by puncta (pit/cell), which are indicated by bright green spots on the SOD1^G85RYFP image set.
The assay was performed in triplicate for each condition tested, and wells containing the media with vehicle (0.1 % DMSO) or (−)-MG-132 alone were used as controls representing the minimum and maximum aggregate formation. […] The data for EC50 determination was treated with Prism and fitted using a semi-logarithmic curve for determination of the EC50 values of NU9 and compounds 4, 6, 20 and 21.

[2] = In vitro cytotoxicity, CellTiter-Glo, HepG2; format: cell-based; details: human, HepG2 cells
Procedure: (§1) The HepG2 and HEK293 cells were cultured in DMEM media supplemented with 10 % FBS (heat-inactivated), 1 % Pen-strep, and L-glutamine and incubated at 37 °C in humidified air with 5 % CO2 until 85–90 % confluency. The PC12 Tet-Off-SOD1^G85R YFP cells were maintained as described in 4.2. On the day before the experiments, the cells were transferred to white bottom 96 well plates (Greiner cat. 655,083) at a concentration of 50,000 cells/100 μL of media in each well and incubated overnight at 37 °C. Stock solutions of the compounds (30 mM) in DMSO were prepared and then diluted in media to obtain the six final working solutions starting at 30 μM, and serial dilutions were obtained with the lowest concentration at 0.25 μM. The media were removed and fresh media containing the compounds or the vehicle DMSO (0.1 % v/v) were transferred to the plates containing HepG2 and HEK293 cells and the plates were incubated for 24 or 48 h at 37 °C. The PC12 Tet-Off-SOD1^G85R YFP cells compound treatment was performed as described in section 4.2 and using a 9-point 2-fold serial dilution of the compounds starting at 15 μM and the lowest concentration at 0.05 μM. After incubation, the plates were cooled to room temperature and 25 μL of CellTiter-Glo® solution was added to each well. The plates were loaded into a BioTek Synergy H1 MD plate reader and shaken for 2 min, stabilized for 10 min without shaking, and then the luminescence values were read for each well (luminescence integration step 1 ms). Wells containing media with the vehicle DMSO with or without cells were used as controls to represent, respectively, the maximum viability and the lowest viability (background signal) for the cytotoxicity studies with HepG2 and HEK293 cell lines. The viability values for the assay performed with the PC12 Tet-Off-SOD1^G85R YFP cells were normalised for the vehicle (0.1 % DMSO) and (−)-MG-132 alone treatments, which represented respectively the […] viability for the assay.
(§2) The results are presented as an average of three independent experiments, each performed in triplicate, for the cytotoxicity experiments performed with HepG2 and HEK293 cells. The results for the protective screening with the PC12 Tet-Off-SOD1^G85R YFP cells are presented as an average of four replicates.

HepG2 cells = assay: In vitro cytotoxicity, CellTiter-Glo, HepG2; format: cell-based; details: cytotoxicity EC50 (HepG2, HEK293) versus PC12-SOD1^G85R EC50
Procedure: as §1, §2

[3] = In vitro cytotoxicity, CellTiter-Glo, HEK293; format: cell-based; details: human, HEK293 cells
Procedure: as §1, §2

[4] = system: PC12-SOD1^G85R YFP cells co-treated with MG132; assay: Viability screening against MG132-induced toxicity, CellTiter-Glo; format: cell-based; details: PC12-SOD1^G85R YFP cells co-treated with MG132 and the compounds; read-out: PC12-SOD1^G85R EC50, in vitro viability screening (protection against MG132-induced toxicity)
Procedure: as §1, with “assay. […]” for “assay.”

[5] = pig, PAMPA, 18 h, 250 μM, pH 7.5
Procedure: (§3) A solution of 1 × PBS (pH 7.5) was initially prepared by the dilution of a commercially available 10 × PBS solution. […] A solution of porcine brain lipid (PBL) (20 mg/mL in dodecane) was prepared, and 4 μL of this solution was used to coat the filters on the bottom of the PAMPA donor plates (Sigma Aldrich #MAIPNTR10). After air drying for 20 min, the donor plate wells were charged with 250 μL of the solutions of the test compounds or the controls. The donor plate was then placed over the acceptor plate (Sigma Aldrich #MATRNPS50), in which wells were previously filled with 1 × PBS (2 % DMSO v/v) solution. The PAMPA sandwich was closed with parafilm and incubated at 25 °C for 18 h in a humidity-saturated atmosphere with orbital agitation. […] The UV spectra (250–400 nm) of each well were acquired on a BioTek Synergy H1 MD plate reader equipped with a monochromator at room temperature.
(§4) CA(t) is the concentration of the compounds at the final time of incubation on the acceptor well; CD(0) and CD(t) are the concentration of the compounds at the initial time of incubation and at the final time of incubation on the donor well, respectively.

[6] = parameters: method as in PMID 33634973; details: human microsomes; cited from earlier work
[7] = parameters: method as in PMID 33634973; details: mouse microsomes; cited from earlier work
[8] = system: cells containing SOD1 mutations associated with ALS; parameters: method as in PMID 21073276, PMID 22189273, PMID 22837812; details: Fig. 1, evolution of CHD series; cited from earlier work
[9] = system: primary hippocampal neuronal cells; parameters: method as in PMID 40030015; details: cited from earlier work
[10] = system: primary hippocampal neurons; parameters: method as in PMID 40030015; details: cited from earlier work
[11] = Parallel artificial membrane permeability assay - blood brain barrier (PAMPA-BBB); details: pig, PAMPA, pH 7.5
Procedure: as §3, §4

Question: For `C[C@H](Oc1cc(C(F)(F)F)cc(C(F)(F)F)c1)C1CC(=O)CC(=O)C1` [NU-9], which EC50 ([1]; PC12-SOD1^G85R YFP cells, 0.7 μM MG132, 72 h, Inactive = no decrease of aggregates at 10 μM vs vehicle) is on record?
Answer: 2.52 ± 0.38 µM

Question: What about the “decrease in MG132-induced SOD-1^G85R aggregate formation” value ([1]; at 10 μM, 72 h) of the same compound?
Answer: marked decrease

Question: What about the viability at 24 h, 30 μM ([2]; 30 μM, 24 h, relative to untreated cells, read-out: Percentage of viable cells observed at 30 μM treatment, HepG2) of the same compound?
Answer: 93.5%

Question: What about the viability at 48 h, 30 μM ([2]; 30 μM, 48 h, relative to untreated cells, read-out: Percentage of viable cells observed at 30 μM treatment, HepG2) of the same compound?
Answer: 96.3%

Question: And the EC50 at 24 h ([2]; cytotoxicity, 24 h)?
Answer: > 30 µM

Question: And the EC50 at 48 h ([2]; cytotoxicity, 48 h)?
Answer: > 30 µM

Question: What about the “EC50 Fold difference” value (HepG2 cells) of the same compound?
Answer: >12

Question: What about the viability at 24 h, 30 μM ([3]; 30 μM, 24 h, relative to untreated cells, read-out: Percentage of viable cells observed at 30 μM treatment, HEK293) of the same compound?
Answer: 85.7%

Question: And the viability at 48 h, 30 μM ([3]; 30 μM, 48 h, relative to untreated cells, read-out: Percentage of viable cells observed at 30 μM treatment, HEK293)?
Answer: 89.6%

Question: And the EC50 at 24 h ([3]; cytotoxicity, 24 h)?
Answer: > 30 µM

Question: And the EC50 at 48 h ([3]; cytotoxicity, 48 h)?
Answer: > 30 µM

Question: What about the EC50 [4] of the same compound?
Answer: 3.37 ± 0.26 µM

Question: What about the “Log Pe” value [5] of the same compound?
Answer: −5.16

Question: What about the “t1/2 (human)” value [6] of the same compound?
Answer: 74^27 min

Question: What about the “t1/2 (mouse)” value [7] of the same compound?
Answer: 52^27 min

Question: And the EC50 [8]?
Answer: 0.3 µM

Question: And the Amyloid-beta oligomer build-up [9]?
Answer: capable of reducing Amyloid-beta oligomer build-up

Question: And the LC3II puncta [10]?
Answer: capable of increasing LC3II puncta

Question: What about the Papp at 18 h, 250 μM [11] of the same compound?
Answer: 6.98 ± 0.14 ×10⁻⁶ cm/s
